Data set [1] can be described thus: Storage stability: impurities/degradants by HPLC. It is filed as physicochemical. The method, then:
Particle size and globule size were likewise measured at the start of storage and at the one month or three month interval, respectively, according to USP 729. Impurities were also measured at the start of storage and at the one month or three month intervals, respectively. Viscosity was also measured at the start of storage and at the one month or three month intervals, respectively. Osmolality was also measured at the start of storage and at the one month or three month intervals, respectively, according to USP 785. Briefly, to measure betamethasone dipropionate and betamethasone content as well as impurities/degradants, HPLC was used. […] The 50 mL tubes were then removed from the heat and vortex mixed again for 30 seconds. If necessary, the tubes were returned to the water bath to prevent cooling. […] The tubes were then centrifuged for 30 minutes at 12,000 RPM and supernatant was transferred to a HPLC vial for analysis. The HPLC system was rinsed well with 50:50 acetonitrile:water to remove buffer salts after each run. […] HPLC was run using a Hypersil ODS 10×30 mm, 3 μm column as the Guard Column and a Hypersil ODS 3×150 mm, 3 μm column as the Analytical Column. The column temperature was maintained at 35° C. with a runtime of 45 minutes, a flow rate of 0.5 mL/minute, an injection volume of 3 μL, an autosampler temperature of 30° C., and using a 254 nm (UV absorbance) detector and collecting PDA from 200 nm to 400 nm for identification testing. […] Mobile Phase B was prepared as 88:12 methanol:acetonitrile. […] All mobile phase solutions were mixed well and degassed prior to use. […] A Working Standard Solution was prepared from 3.0 mL of the IS Stock Solution and 8.0 mL of the BD Stock in a 50 mL volumetric flask to which 150 mg of benzyl alcohol reference standard was added and diluent added to volume followed by mixing well. […] System suitability requirements included those in Table 38. The Ratio RT (RRT) in Table 39 can be calculated from the ratio of the sample retention time to the mean retention time of the bracketing standards.

The nature of data set [2]: Recovery of force-degraded MFM spiked into placebo cream and of active cream (0.1% MFM), HPLC. It counts as physicochemical. As for the experimental part:
MFM neat and degraded materials were spiked into placebo cream (lot #2020-11-01) to investigate potential partitioning effects and peak interferences and to compare spiked and active cream samples by the procedure in Table 50 with the exception that for acid, base and peroxide degradations, the additions of HCl, NaOH and peroxide were calculated accordingly.
Percent recovery of Force-Degraded Materials Spiked into Placebo is provided in Table 51 below while recovery of active cream formulation (0.1% MFM) is provided in Table 52 below.

The mark [3] stands for this setting: stored at 25° C./60% RH, 1 Month, Mean.
Where [4] appears, read: stored at 25° C./60% RH, 1 Month, Prep #1.
Where [5] appears, read: stored at 25° C./60% RH, 1 Month, Prep #2.
Setting [6] is: stored at 25° C./60% RH, 3 Month, Mean.
The mark [7] stands for this setting: stored at 25° C./60% RH, 3 Month, Prep #1.
Setting [8] is: stored at 25° C./60% RH, 3 Month, Prep #2.
The mark [9] stands for this setting: stored at 30° C./65% RH, 1 Month, Mean.
Setting [10] is: stored at 30° C./65% RH, 1 Month, Prep #1.
Setting [11] is: stored at 30° C./65% RH, 1 Month, Prep #2.
The mark [12] stands for this setting: stored at 30° C./65% RH, 3 Month, Mean.
[13] abbreviates: stored at 30° C./65% RH, 3 Month, Prep #1.
Setting [14] is: stored at 30° C./65% RH, 3 Month, Prep #2.
[15] abbreviates: stored at 40° C./75% RH, 1 Month, Mean.
The mark [16] stands for this setting: stored at 40° C./75% RH, 1 Month, Prep #1.
Setting [17] is: stored at 40° C./75% RH, 1 Month, Prep #2.
Setting [18] is: stored at 40° C./75% RH, 3 Month, Mean.
Setting [19] is: stored at 40° C./75% RH, 3 Month, Prep #1.
[20] abbreviates: stored at 40° C./75% RH, 3 Month, Prep #2.
[21] abbreviates: stored at 25° C./60% RH, Initial, Mean.
The mark [22] stands for this setting: stored at 25° C./60% RH, Initial, Prep #2.
Setting [23] is: stored at 30° C./65% RH, Initial, Mean.
[24] abbreviates: stored at 30° C./65% RH, Initial, Prep #2.
Where [25] appears, read: stored at 40° C./75% RH, Initial, Mean.
The mark [26] stands for this setting: stored at 40° C./75% RH, Initial, Prep #2.

Take `CCC(=O)OCC(=O)C1(O)C(C)CC2C3CCC4=CC(=O)C=CC4(C)C3(F)C(O)CC21C` (stereo not drawn) [Lot 4]: the “Impurity (% of related substances) in Betamethasone Dipropionate Cream Formulation” value (shortened to “Impurity (% of related substances)”) came out at 0.09% in data set [1] (setting [3]); 0.08% in data set [1] (setting [4]); 0.10% in data set [1] (setting [5]); 0.22% in data set [1] (setting [6]); 0.19% in data set [1] (setting [7]); 0.25% in data set [1] (setting [8]). Besides, the “Impurity (% of related substances)” value amounted to 0.15% in data set [1] (setting [9]); 0.13% in data set [1] (setting [10]); 0.17% in data set [1] (setting [11]); 0.50% in data set [1] (setting [12]); 0.44% in data set [1] (setting [13]); 0.56% in data set [1] (setting [14]). For the same compound, the “Impurity (% of related substances)” value in data set [1] (setting [15]) turned out to be 0.53%; in data set [1] (setting [16]), 0.48%; in data set [1] (setting [17]) it was 0.58%; in data set [1] (setting [18]) it was 1.99%; in data set [1] (setting [19]) it was 1.86%; in data set [1] (setting [20]), 2.12%.
With `CCC(=O)OC1(C(=O)CO)C(C)CC2C3CCC4=CC(=O)C=CC4(C)C3(F)C(O)CC21C` (stereo not drawn) [Lot 5], the “Impurity (% of related substances)” value in data set [1] (setting [3]) came to 0.34%; in data set [1] (setting [4]) it was 0.31%; in data set [1] (setting [5]) it was 0.37%; in data set [1] (setting [6]) it was 0.49%; in data set [1] (setting [7]) it was 0.43%; in data set [1] (setting [8]), 0.54%. Moreover, the “Impurity (% of related substances)” value in data set [1] (setting [21]) stood at 0.18%; in data set [1] (stored at 25° C./60% RH, Initial, Prep #1) it was 0.16%; in data set [1] (setting [22]) it was 0.20%; in data set [1] (setting [9]), 0.43%; in data set [1] (setting [10]) it was 0.38%; in data set [1] (setting [11]) it was 0.48%. For the same compound, the “Impurity (% of related substances)” value in data set [1] (setting [12]) stood at 0.73%; in data set [1] (setting [13]) it was 0.66%; in data set [1] (setting [14]), 0.79%; in data set [1] (setting [23]) it was 0.18%; in data set [1] (stored at 30° C./65% RH, Initial, Prep #1), 0.16%; in data set [1] (setting [24]) it was 0.20%. In addition, the “Impurity (% of related substances)” value in data set [1] (setting [15]) was 0.64%; in data set [1] (setting [16]), 0.59%; in data set [1] (setting [17]), 0.68%; in data set [1] (setting [18]), 0.93%; in data set [1] (setting [19]) it was 0.86%; in data set [1] (setting [20]), 0.99%. In addition, the “Impurity (% of related substances)” value in data set [1] (setting [25]) stood at 0.18%; in data set [1] (stored at 40° C./75% RH, Initial, Prep #1), 0.16%; in data set [1] (setting [26]) it was 0.20%.
In the case of `CCC(=O)OCC(=O)[C@@]1(OC(=O)CC)[C@@H](C)C[C@H]2[C@@H]3CC(Br)C4=CC(=O)C=C[C@]4(C)[C@@]3(F)[C@@H](O)C[C@@]21C` (stereo partly drawn) [Lot 9], the “Impurity (% of related substances)” value in data set [1] (setting [21]), in data set [1] (setting [22]), in data set [1] (setting [23]), in data set [1] (setting [24]), in data set [1] (setting [25]) and in data set [1] (setting [26]) was 0.12% each time.
Take `C[C@@H]1C[C@H]2[C@@H]3CCC4=CC(=O)C=C[C@]4(C)[C@@]3(Cl)[C@@H](O)C[C@]2(C)[C@@]1(OC(=O)c1ccco1)C(=O)CCl.O` [Mometasone Furoate Momohydrate]: the “Difference with Placebo (neat vs spiked recovery)” value is 5.23% in data set [2] (0.1N HC1 (1 hour)); 0.13% in data set [2] (0.1N NaOH (1 hour)); 5.20% in data set [2] (3% H2O2 (1 hour)); 4.96% in data set [2] (60° C. (5 days)); 5.87% in data set [2] (Control (neat MFM)); 5.29% in data set [2] (White light (5 days)).

The values are drawn from patent US20230277452A1, “COMPOSITIONS, DEVICES AND METHODS FOR TREATING NASAL, OTIC AND OTHER TISSUE INFECTION AND/OR INFLAMMATION” (priority 2020, published 2023).
